According to the NIST ThermoML archive (doi:10.1016/j.tca.2011.07.005):
Values joined by “and” are separate entries in the source; they are usually repeats but may differ in a detail not shown here. Equal entries are not always repeated.

Assays:
[1] = 101 kPa, Liquid; for speed of sound: Linear variable-path acoustic interferometer; for mass density: Pycnometric method
[2] = xn = mol fraction of the nth substance listed; conditions: 101 kPa, Liquid; for speed of sound: Linear variable-path acoustic interferometer; for mass density: Pycnometric method

C1CCOC1 [tetrahydrofuran]
[1]
Conditions	mass density [kg/m3]	speed of sound [m/s]
303.15 K	876.9	1254
313.15 K	865.7	1207
323.15 K	854.8	1165

CC(C)OC(C)C [diisopropyl ether]
[1]
Conditions	mass density [kg/m3]	speed of sound [m/s]
303.15 K	712.9	976
313.15 K	702.9	932
323.15 K	691.9	889

Nc1cccc(Cl)c1 [3-chlorobenzenamine]
[1]
Conditions	mass density	speed of sound
303.15 K	1205.3 kg/m3	1517 m/s
313.15 K	1196.1 kg/m3 and 1196 kg/m3	1484 m/s and 1486 m/s
323.15 K	1186.6 kg/m3	1452 m/s

Nc1ccccc1Cl [2-chlorobenzeneamine]
[1]
Conditions	mass density [kg/m3]	speed of sound [m/s]
303.15 K	1202.7	1470
313.15 K	1193	1438
323.15 K	1183.3	1402

Nc1cccc(Cl)c1 [3-chlorobenzenamine] + CC(C)OC(C)C
[2]
Conditions	mass density, 303.15 K [kg/m3]	mass density, 313.15 K [kg/m3]	mass density, 323.15 K [kg/m3]	speed of sound, 303.15 K [m/s]	speed of sound, 313.15 K [m/s]	speed of sound, 323.15 K [m/s]
x2 = 0	1205.3	1196.1	1186.6	1517	1484	1452
x2 = 0.0619	1171.2	1163.2	1154.7	1484	1451	1418
x2 = 0.1302	1134.1	1126.7	1118.2	1448	1414	1380
x2 = 0.2031	1095.7	1088.2	1079.3	1410	1374	1340
x2 = 0.2827	1055.1	1047.4	1038	1368	1331	1295
x2 = 0.3716	1011.3	1003.4	993.6	1321	1283	1246
x2 = 0.4676	965	957.2	947.6	1270	1230	1192
x2 = 0.5803	911.2	903.7	894.5	1209	1168	1129
x2 = 0.7235	842.6	835.3	826.7	1132	1089	1048
x2 = 0.8428	785.4	777.7	768.7	1066	1023	981

C1CCOC1 [tetrahydrofuran] + Nc1cccc(Cl)c1
[2], x1 = 1
Conditions	mass density [kg/m3]	speed of sound [m/s]
303.15 K	876.9	1254
313.15 K	865.7	1207
323.15 K	854.8	1165

Nc1ccccc1Cl [2-chlorobenzeneamine] + C1CCOC1
[2]
Conditions	mass density, 303.15 K [kg/m3]	mass density, 313.15 K [kg/m3]	mass density, 323.15 K [kg/m3]	speed of sound, 303.15 K [m/s]	speed of sound, 313.15 K [m/s]	speed of sound, 323.15 K [m/s]
x2 = 0	1202.7	1193	1183.3	1470	1438	1402
x2 = 0.0695	1187.6	1177.4	1167.9	1461	1427	1395
x2 = 0.1543	1167.6	1157.7	1148.6	1450	1415	1383
x2 = 0.2423	1146	1136.3	1127	1436	1401	1369
x2 = 0.3275	1124.2	1114.5	1105	1422	1386	1353
x2 = 0.4213	1098.7	1088.7	1079.1	1404	1367	1333
x2 = 0.5259	1067.6	1057.4	1047.5	1383	1344	1308
x2 = 0.6325	1032	1021.8	1012.2	1359	1319	1281
x2 = 0.744	990.1	980.1	971	1331	1289	1250
x2 = 0.8663	938.4	928.5	920	1296	1252	1212

C1CCOC1 [tetrahydrofuran] + Nc1ccccc1Cl
[2], x1 = 1
Conditions	mass density [kg/m3]	speed of sound [m/s]
303.15 K	876.9	1254
313.15 K	865.7	1207
323.15 K	854.8	1165

Nc1cccc(Cl)c1 [3-chlorobenzenamine] + C1CCOC1
[2]
Conditions	mass density, 303.15 K [kg/m3]	mass density, 313.15 K [kg/m3]	mass density, 323.15 K [kg/m3]	speed of sound, 303.15 K [m/s]	speed of sound, 313.15 K [m/s]	speed of sound, 323.15 K [m/s]
x2 = 0	1205.3	1196	1186.6	1517	1486	1452
x2 = 0.0728	1189.4	1180.6	1171.5	1500	1468	1436
x2 = 0.1321	1175.7	1167.1	1157.9	1487	1455	1424
x2 = 0.2389	1149.7	1140.6	1131.3	1465	1432	1400
x2 = 0.3272	1126.8	1117	1107.4	1446	1412	1380
x2 = 0.4116	1102.9	1093.2	1083.3	1427	1392	1360
x2 = 0.5161	1071.3	1061.4	1051.5	1403	1366	1333
x2 = 0.6297	1033.5	1023.9	1014.3	1373	1336	1301
x2 = 0.7419	992	982.7	973.7	1341	1302	1266
x2 = 0.8633	941.6	932.3	923.4	1302	1260	1222

CC(C)OC(C)C [diisopropyl ether] + Nc1cccc(Cl)c1
[2], x1 = 1
Conditions	mass density [kg/m3]	speed of sound [m/s]
303.15 K	712.9	976
313.15 K	702.9	932
323.15 K	691.9	889
